20 molecules from ChEMBL document CHEMBL5505970 (J Med Chem, 2024) can be followed below.

As usually defined, the pIC50 is the IC50 on a negative log10 scale, so that one unit is a factor of ten. By clearance is commonly meant the volume of plasma or blood freed of the substance per unit of time. Higher therefore signals efficient removal. A word on the bioavailability: it is dose-corrected exposure relative to a reference, in per cent. Read a high bioavailability as good availability. As a reminder, the efflux ratio is a quotient of directional permeabilities that is used to spot active efflux. Broadly, the Papp is a coefficient for how fast a substance crosses the barrier. As usually defined, the pKi is the negative decadic logarithm of the Ki, by convention in mol/L. Low values mean a high Ki, high ones a low Ki.

The structures appear in SMILES notation. pIC50, pKi: −log10 of the molar value. Active and inactive are the calls of the source. No cut-off for these calls is given here.

Series [1] can be described thus: Inhibition of human full length recombinant ATR M211T mutant using GST-c-Myc-p53 as substrate measured after 30 mins in presence of Mg/ATP mix by ELISA. In general terms: An ELISA detects its analyte on a solid surface through an enzyme-linked reagent.
In series [2] the target is T1, Serine/threonine-protein kinase ATR (Homo sapiens, UniProt Q13535). The series can be described thus: Inhibition of ATR in human HeLa S3 cells assessed as decrease in CHK1 phosphorylation at Ser345 residue pretreated for 20 mins followed by gemcitabine stimulation for 3.5 to 4 hrs by AlphaScreen SurFire assay. It is filed as cell-based.
T1 sequence (Q13535 whole entry): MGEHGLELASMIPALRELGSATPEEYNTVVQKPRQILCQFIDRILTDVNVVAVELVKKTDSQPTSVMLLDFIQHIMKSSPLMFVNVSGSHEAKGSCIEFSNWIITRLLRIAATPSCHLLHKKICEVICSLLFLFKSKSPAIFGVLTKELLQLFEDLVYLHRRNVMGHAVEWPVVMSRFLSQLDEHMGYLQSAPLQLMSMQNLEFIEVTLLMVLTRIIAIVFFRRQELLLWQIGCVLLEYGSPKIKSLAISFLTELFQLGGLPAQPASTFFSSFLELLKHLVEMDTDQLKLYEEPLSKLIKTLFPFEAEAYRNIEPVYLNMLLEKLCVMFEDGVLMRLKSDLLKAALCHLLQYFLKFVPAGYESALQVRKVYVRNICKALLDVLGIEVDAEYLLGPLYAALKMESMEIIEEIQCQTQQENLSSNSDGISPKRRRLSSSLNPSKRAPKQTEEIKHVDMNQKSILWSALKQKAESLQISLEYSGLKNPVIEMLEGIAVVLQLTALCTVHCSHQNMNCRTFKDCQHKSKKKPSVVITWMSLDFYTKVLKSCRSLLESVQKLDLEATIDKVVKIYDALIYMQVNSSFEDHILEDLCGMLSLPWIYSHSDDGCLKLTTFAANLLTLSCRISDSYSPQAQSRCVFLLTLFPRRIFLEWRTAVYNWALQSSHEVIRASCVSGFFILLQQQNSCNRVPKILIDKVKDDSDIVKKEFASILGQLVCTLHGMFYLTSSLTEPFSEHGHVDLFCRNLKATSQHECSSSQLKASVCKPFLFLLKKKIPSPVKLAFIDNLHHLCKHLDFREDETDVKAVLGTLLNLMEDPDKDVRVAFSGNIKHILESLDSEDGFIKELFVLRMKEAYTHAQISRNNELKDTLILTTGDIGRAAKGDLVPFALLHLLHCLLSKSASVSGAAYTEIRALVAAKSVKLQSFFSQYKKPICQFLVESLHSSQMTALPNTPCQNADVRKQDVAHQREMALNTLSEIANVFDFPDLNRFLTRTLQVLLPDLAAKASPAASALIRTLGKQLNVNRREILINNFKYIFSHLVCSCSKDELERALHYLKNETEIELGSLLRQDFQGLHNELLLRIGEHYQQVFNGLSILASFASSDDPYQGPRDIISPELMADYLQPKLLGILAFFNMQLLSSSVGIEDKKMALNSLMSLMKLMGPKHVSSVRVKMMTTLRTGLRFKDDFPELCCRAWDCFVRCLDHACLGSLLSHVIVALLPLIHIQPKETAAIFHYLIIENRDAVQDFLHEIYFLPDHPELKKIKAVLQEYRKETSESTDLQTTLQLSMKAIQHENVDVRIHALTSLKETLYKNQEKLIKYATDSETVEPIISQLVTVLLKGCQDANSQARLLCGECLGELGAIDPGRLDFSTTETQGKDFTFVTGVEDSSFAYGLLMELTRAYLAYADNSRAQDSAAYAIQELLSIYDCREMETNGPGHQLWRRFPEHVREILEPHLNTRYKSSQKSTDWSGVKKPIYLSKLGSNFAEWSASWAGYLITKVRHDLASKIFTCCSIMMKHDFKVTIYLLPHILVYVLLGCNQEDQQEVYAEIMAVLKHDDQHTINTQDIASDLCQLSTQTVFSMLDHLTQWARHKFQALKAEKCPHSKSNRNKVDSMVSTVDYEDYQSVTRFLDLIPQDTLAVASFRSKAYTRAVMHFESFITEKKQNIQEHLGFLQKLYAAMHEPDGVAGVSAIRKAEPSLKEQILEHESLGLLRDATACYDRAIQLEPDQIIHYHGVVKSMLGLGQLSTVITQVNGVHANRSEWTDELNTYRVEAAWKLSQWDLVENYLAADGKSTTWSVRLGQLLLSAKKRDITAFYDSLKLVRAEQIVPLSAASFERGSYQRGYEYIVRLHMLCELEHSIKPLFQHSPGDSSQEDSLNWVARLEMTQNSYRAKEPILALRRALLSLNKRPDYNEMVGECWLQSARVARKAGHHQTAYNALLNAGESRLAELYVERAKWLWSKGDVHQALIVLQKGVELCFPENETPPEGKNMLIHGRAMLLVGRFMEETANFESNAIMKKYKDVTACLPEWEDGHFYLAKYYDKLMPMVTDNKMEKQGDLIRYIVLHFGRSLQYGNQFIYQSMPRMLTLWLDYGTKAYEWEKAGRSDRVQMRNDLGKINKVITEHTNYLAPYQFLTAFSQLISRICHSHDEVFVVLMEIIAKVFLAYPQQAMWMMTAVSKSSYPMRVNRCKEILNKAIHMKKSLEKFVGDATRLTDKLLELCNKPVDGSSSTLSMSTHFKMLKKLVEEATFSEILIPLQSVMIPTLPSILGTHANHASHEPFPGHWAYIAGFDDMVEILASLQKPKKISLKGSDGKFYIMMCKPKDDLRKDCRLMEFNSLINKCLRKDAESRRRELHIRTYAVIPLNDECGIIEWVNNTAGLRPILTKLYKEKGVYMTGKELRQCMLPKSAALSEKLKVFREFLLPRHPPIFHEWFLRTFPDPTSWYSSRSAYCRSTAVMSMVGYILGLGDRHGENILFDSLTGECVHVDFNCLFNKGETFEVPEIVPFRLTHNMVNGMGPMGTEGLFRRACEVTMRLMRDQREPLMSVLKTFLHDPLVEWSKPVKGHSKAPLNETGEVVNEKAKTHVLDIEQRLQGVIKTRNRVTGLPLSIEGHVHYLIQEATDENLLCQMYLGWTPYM
A further series addresses ATR/ATRIP (Homo sapiens, UniProt Q13535). The series can be described thus: Inhibition of human ATR/ATRIP using GST-tagged p53 as substrate in presence of 3 uM ATP by AlphaScreen assay. It is filed as protein-complex assay.
The nature of series [3]: Clearance in human liver microsomes at 1 uM in presence of NADPH by ESI/LC-MS/MS analysis. It is filed as ADME, Microsome. Conditions: read-out: CLH.
The nature of series [4]: Clearance in Sprague-Dawley rat at 1 mg/kg, iv formulated as a solution in 10% PG:18% PEG400 in water or 5% NMP:95% (10% VitE TPGS in water) measured for 24 hrs by reverse phase liquid chromatography coupled to mass spectrometry. It is filed as ADME, organism-based. The note with it: in vivo.
The nature of series [5]: Oral bioavailability in Sprague-Dawley rat at 2.5 to 5 mg/kg formulated as a solution in 5% NMP:95% (10% VitE TPGS in water) measured for 24 hrs by reverse phase liquid chromatography coupled to mass spectrometry. It is filed as ADME, organism-based. Conditions: in vivo, dose 2.5-5 mg/kg.
Series [6] is filed under the species Homo sapiens. The series can be described thus: Selectivity ratio of IC50 for inhibition of mTOR in human HeLa S3 cells to IC50 for inhibition of ATR in human HeLa S3 cells. It is filed as cell-based. The note with it: time 1.0 hrs.
Series [7] is described as follows: Efflux ratio of apparent permeability in human Caco-2 cells at 10 uM measured for 90 mins by LC-MS/MS analysis. It is filed as ADME, cell-based.
Series [8] in a line: Apparent permeability of the compound in human Caco-2 cells at 10 uM measured for 90 mins by LC-MS/MS analysis. It is filed as ADME, cell-based. In general terms: Passage across Caco-2 layers is used to estimate intestinal permeability.
The nature of series [9]: Clearance in human hepatocytes at 1 uM measured per million cells by ESI/LC-MS/MS analysis. It is filed as ADME, cell-based, Hepatocyte. The note with it: read-out: CLH.
The target of series [10] is Serine/threonine-protein kinase mTOR (Homo sapiens, UniProt P42345). The series can be described thus: Inhibition of human full length recombinant mTOR measured after 40 mins in presence of [gamma-33P]ATP by radiometric scintillation counting analysis.
For series [11], the target named is Serine-protein kinase ATM (Homo sapiens, UniProt Q13315). The series can be described thus: Inhibition of human full length recombinant ATM using GST-c-Myc-p53 as substrate measured after 30 mins in presence of Mg/ATP mix by ELISA.
Series [12] concerns the target DNA-dependent protein kinase catalytic subunit (Homo sapiens, UniProt P78527). The series can be described thus: Inhibition of human full length recombinant DNA-PK using GST-c-Myc-p53 as substrate measured after 30 mins in presence of Mg/ATP mix by ELISA.
The next series has as its system LoVo. The series is described as follows: Cytotoxicity against human LoVo cells assessed as reduction in cell viability incubated for 5 days by CellTiter-Glo assay. It is filed as functional, cell-based. The note with it: 120 h. (ATP-based viability assays read luminescence as a measure of living cells.)
Series [13] in a line: Toxicity in NOD-SCID mouse xenografted with human Granta-519 cells assessed as reduction in red blood cells at 50 mg/kg, po bid for 3 days and 4 days off treatment and measured on day 14. It is filed as organism-based. The note with it: in vivo, 72 h, time 3 day.
Series [14] in a line: Toxicity in NOD-SCID mouse xenografted with human Granta-519 cells assessed as late stage erythroblasts at 30 mg/kg, po bid for 3 days and measured at 4 days after treatment discontinuation by flow cytometry. It is filed as organism-based. The note with it: in vivo, 72 h, time 3 day.
A short description of series [15]: Toxicity in NOD-SCID mouse xenografted with human Granta-519 cells assessed as early stage erythroblasts at 30 mg/kg, po bid for 3 days and measured at 4 days after treatment discontinuation by flow cytometry. It is filed as organism-based. The note with it: in vivo, 72 h, time 3 day.
The next series deals with Granta-519. The series is described as follows: Antitumor activity against human Granta-519 cells xenografted in NOD-SCID mouse assessed as decrease in tumor volume at 50 mg/kg, po bid for 3 days and measured at 4 days after drug treatment cessation. It is filed as functional, organism-based. The note with it: time 3.0 day.
The target in series [16] is Glycogen synthase kinase-3 beta (Homo sapiens) (UniProt P49841). The series is described as follows: Inhibition of GSK3B in human Jurkat cell lysates at 0.03 to 0.3 uM in presence of biotinylated ADP by KiNativ profiling based mass spectrometry. It is filed as subcellular. Conditions: dose 0.03-0.3 µM.
Chain of Glycogen synthase kinase-3 beta (Homo sapiens) (P49841 whole entry, looked up): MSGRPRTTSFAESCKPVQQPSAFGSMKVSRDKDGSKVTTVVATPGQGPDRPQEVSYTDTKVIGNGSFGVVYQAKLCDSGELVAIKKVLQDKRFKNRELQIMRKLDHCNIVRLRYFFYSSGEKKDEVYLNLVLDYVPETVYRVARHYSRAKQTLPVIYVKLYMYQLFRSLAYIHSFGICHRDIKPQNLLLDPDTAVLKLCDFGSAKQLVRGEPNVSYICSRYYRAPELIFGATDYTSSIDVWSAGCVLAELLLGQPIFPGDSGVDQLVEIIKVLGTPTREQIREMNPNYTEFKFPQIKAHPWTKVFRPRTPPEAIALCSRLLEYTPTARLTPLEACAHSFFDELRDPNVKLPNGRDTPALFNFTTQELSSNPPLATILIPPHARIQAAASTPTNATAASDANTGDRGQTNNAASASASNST
The species named for series [17] is Homo sapiens. The series can be described thus: Selectivity ratio of IC50 for inhibition of mTOR in human LoVo cells using pP70S6K (Thr389) as substrate to IC50 for inhibition of ATR in gemcitabine-stimulated human LoVo cells using CHK1 (Ser345) as substrate. It is filed as cell-based.
Series [18] addresses T1, Serine/threonine-protein kinase ATR. The series can be described thus: Inhibition of ATR (unknown origin) by Morrison equation based analysis.
For series [19], the target named is Dual specificity tyrosine-phosphorylation-regulated kinase 1A (Homo sapiens) (UniProt Q13627). The series can be described thus: Inhibition of DYRK1A in human Jurkat cell lysates at 0.03 to 0.3 uM in presence of biotinylated ADP by KiNativ profiling based mass spectrometry. It is filed as subcellular. Conditions: dose 0.03-0.3 µM.
The target in series [20] is Glycogen synthase kinase-3 alpha (Homo sapiens) (UniProt P49840). The series is described as follows: Inhibition of GSK3A in human Jurkat cell lysates at 0.03 to 0.3 uM in presence of biotinylated ADP by KiNativ profiling based mass spectrometry. It is filed as subcellular. Conditions: dose 0.03-0.3 µM.
Chain of Glycogen synthase kinase-3 alpha (Homo sapiens) (P49840 2-483 limits assumed): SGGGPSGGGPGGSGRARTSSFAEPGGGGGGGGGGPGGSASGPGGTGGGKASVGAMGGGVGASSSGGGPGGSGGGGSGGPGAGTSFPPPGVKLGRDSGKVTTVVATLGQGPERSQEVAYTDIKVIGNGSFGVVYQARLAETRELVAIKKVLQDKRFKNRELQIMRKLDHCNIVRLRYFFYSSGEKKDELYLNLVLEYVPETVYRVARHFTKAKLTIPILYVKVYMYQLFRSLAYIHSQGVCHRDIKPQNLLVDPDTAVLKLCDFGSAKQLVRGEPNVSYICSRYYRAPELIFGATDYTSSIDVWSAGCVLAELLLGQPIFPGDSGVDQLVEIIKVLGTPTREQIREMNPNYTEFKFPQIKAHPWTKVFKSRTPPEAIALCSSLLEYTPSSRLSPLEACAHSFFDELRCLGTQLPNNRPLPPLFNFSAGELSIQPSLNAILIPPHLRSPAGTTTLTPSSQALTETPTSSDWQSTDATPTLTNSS
In series [21] the target is T1, Serine/threonine-protein kinase ATR. The series can be described thus: Inhibition of ATR in gemcitabine-stimulated human LoVo cells assessed as decrease in CHK1 phosphorylation at Ser345 residue. It is filed as cell-based.

Chain of ATR/ATRIP (Q13535 whole entry): as the sequence (Q13535 whole entry) above
Chain of ATR/ATRIP (Q8WXE1 whole entry, further chain): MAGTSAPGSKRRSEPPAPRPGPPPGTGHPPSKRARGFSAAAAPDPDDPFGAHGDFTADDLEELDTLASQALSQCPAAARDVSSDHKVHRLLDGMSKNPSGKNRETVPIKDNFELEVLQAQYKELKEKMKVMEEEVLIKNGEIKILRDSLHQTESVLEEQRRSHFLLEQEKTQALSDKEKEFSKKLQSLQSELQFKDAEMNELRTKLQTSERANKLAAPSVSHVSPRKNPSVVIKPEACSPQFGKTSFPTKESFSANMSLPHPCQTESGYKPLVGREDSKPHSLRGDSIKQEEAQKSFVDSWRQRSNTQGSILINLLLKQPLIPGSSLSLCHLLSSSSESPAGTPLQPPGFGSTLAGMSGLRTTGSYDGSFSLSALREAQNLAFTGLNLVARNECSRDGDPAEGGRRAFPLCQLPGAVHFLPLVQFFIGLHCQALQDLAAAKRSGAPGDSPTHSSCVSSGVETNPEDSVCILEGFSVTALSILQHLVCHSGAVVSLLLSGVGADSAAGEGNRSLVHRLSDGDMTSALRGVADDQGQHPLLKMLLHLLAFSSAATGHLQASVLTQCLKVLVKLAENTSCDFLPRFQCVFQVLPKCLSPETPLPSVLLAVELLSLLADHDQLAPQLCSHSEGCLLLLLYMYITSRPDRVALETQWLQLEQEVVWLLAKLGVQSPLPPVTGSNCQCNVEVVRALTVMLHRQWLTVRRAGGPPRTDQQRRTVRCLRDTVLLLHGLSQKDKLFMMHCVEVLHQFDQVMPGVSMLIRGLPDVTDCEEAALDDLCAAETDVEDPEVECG

`C[C@@H]1COCCN1c1cc(C2(S(C)(=O)=O)CC2)nc(-c2cccc3[nH]ccc23)n1`: the pIC50 in [1] was 8.00.
`Cc1c[nH]nc1Nc1nc(N2CCOC[C@H]2C)cc(C2(S(C)(=O)=O)CC2)n1`: the results for the pIC50 (in series [2]; on ATR/ATRIP) were < 5.00 and < 6.00, respectively.
As to `C[C@@H]1COCCN1c1cc(C2(S(C)(=O)=O)CC2)nc(Cc2cc[nH]n2)n1`, the negative logarithm of the IC50 (pIC50) in series [2] is < 5.00; at ATR/ATRIP, < 6.15.
With `C[C@@H]1COCCN1c1cc(C2(O)CCC(F)(F)CC2)c2cnn(-c3cc[nH]n3)c2n1`, the microsomal CLint at 1 µM in series [3] was < 11.6 µL/min/mg.
For `C[C@@H]1COCCN1c1cc(I)c2cnn(-c3ccn[nH]3)c2n1`, the microsomal CLint at 1 µM in series [3] was 23 µL/min/mg. Further, in [2], the pIC50 was 8.15.
As to `C[C@@H]1COCCN1c1cc(C2(S(C)(=O)=O)CC2)nc(S(=O)(=O)c2cc[nH]n2)n1`, the pIC50 in series [2] is < 5.00; on ATR/ATRIP, 6.80.
In the case of `C[C@@H]1COCCN1c1cc(C2(S(C)(=O)=O)CC2)nc(N(C)c2cc[nH]n2)n1`, the negative logarithm of the IC50 (pIC50) on ATR/ATRIP was < 6.00.
In the case of `C[C@@H]1COCCN1c1cc(-c2ccccc2C(N)=O)c2cnn(-c3ccn[nH]3)c2n1`, the microsomal CLint at 1 µM in series [3] is < 11.6 µL/min/mg. The same molecule gave a clearance in [4] of 45 mL/min/kg. The same molecule returned a bioavailability in series [5] of 2%.
Consider `C[C@@H]1COCCN1c1ccc2cnn(-c3cc[nH]n3)c2n1`, for which the negative-log IC50 (pIC50) in series [2] is 7.22. Moreover, in the series listed under Homo sapiens [6], the Ratio IC50 stood at 4.
As to `C[C@@H]1COCCN1c1cc(C(C)(C)C(N)=O)c2cnn(-c3cc[nH]n3)c2n1`, the pIC50 in series [2] is 8.05.
Take `Cc1cc2c(C3(S(C)(=O)=O)CC3)cc(N3CCOC[C@H]3C)nc2n1-c1cc[nH]n1`: on ATR/ATRIP, the pIC50 is < 6.00.
Regarding `C[C@@H]1COCCN1c1cc(C(C)(C)C#N)c2cnn(-c3cc[nH]n3)c2n1`, the efflux ratio at […], 10 µM in series [7] came out at 0.9. In addition, the microsomal CLint at 1 µM in series [3] is < 11.6 µL/min/mg. For the same molecule, the Papp at […], 10 µM in series [8] came out at 17 ×10⁻⁶ cm/s. Further, the pIC50 in series [2] was 9.10. Further, in [4], the clearance was found to be 15 mL/min/kg. Besides, the Ratio IC50 in the series filed under Homo sapiens [6] worked out at 6.6. Further, the bioavailability in series [5] was found to be 56%.
In the case of `C[C@@H]1COCCN1c1cc(C(C)(C)O)c2cnn(-c3cc[nH]n3)c2n1`, in series [2], the pIC50 was 7.68.
In the case of `C[C@@H]1COCCN1c1cc(C2(S(C)(=O)=O)CC2)nc(Nc2cn[nH]c2)n1`, in series [2], the pIC50 is < 5.00.
`C[C@@H]1COCCN1c1cc(C2(S(C)(=O)=O)CC2)c2ccn(-c3cc[nH]n3)c2n1`: in series [3], the microsomal CLint at 1 µM is < 11.8 µL/min/mg. Besides, in [9], the hepatocyte CLint at 1 µM was < 2.9 µL/min/1e6 cells.
As to `C[C@@H]1COCCN1c1cc(I)c2cnn(-c3cc[nH]n3)c2n1`, the Ratio IC50 in the series listed under Homo sapiens [6] was 1.6.
With `CNCc1ccc(-c2cc(-c3nc(-c4ccc(S(=O)(=O)C(C)C)cc4)cnc3N)on2)cc1` [BERZOSERTIB], the negative-log IC50 (pIC50) is 8.30 in series [1], 5.32 in series [10], 7.07 in [11] and 5.44 in series [12].
In the case of `C[C@@H]1COCCN1c1cc(C2([S@](C)(=N)=O)CC2)nc(-c2cc[nH]c3nccc2-3)n1` [CERALASERTIB], the negative-log IC50 (pIC50) in series [1] is 6.87; in the series on LoVo it was 6.42.
In the case of `C[C@@H]1COCCN1c1cc(-c2ccnn2C)c2ccnc(-c3ccn[nH]3)c2n1` [ELIMUSERTIB], the Activity result is on record as “Toxic” in series [13], “Non-Toxic” in series [14] and “Non-Toxic” in series [15]. Further, in the series on LoVo, the pIC50 is 7.57. For the same molecule, in the series with Granta-519, the outcome was Active.
In the case of `Nc1nn2cc(F)cnc2c1C(=O)Nc1cncc(F)c1N1CCC(C(=O)N2CCN(C3COC3)CC2)CC1` [M4344], the pIC50 in [2] was 8.30; on ATR/ATRIP, 6.80; in series [21], 8.96. Also, the inhibition result in series [16], in series [19] and in series [20] was “Active” throughout. For the same molecule, the Ratio IC50 in the series filed under Homo sapiens [17] amounted to 63; in the series listed under Homo sapiens [6], 27. The same molecule gave a negative-log Ki (pKi) in series [18] of 8.54.
